Experimental data reported in the supplement of paper PMC10307832.

Legend:
Test in all cases: relative viability (nuclei count vs DMSO), 5 days (fraction); higher = more cells survive
[1] = compound: C1CN(CCC1C(C2=CC3=C(C=C2)OCO3)(C4=CC5=C(C=C4)OCO5)O)C(=O)OC6=CC=C(C=C6)[N+](=O)[O-] [JZL-184] + C[C@@H](Oc1cc(-c2cnn(C3CCNCC3)c2)cnc1N)c1c(Cl)ccc(F)c1Cl [Crizotinib] (partner 1 µM)
How it was run: (§1)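 Lung cancer cell lines in 1536-well plates were dosed by pin tool the day after seeding, either with one drug alone or with a fixed anchor-drug dose plus five library-drug doses (not always all listed) in √10 steps. After 5 days, cells were fixed and their nuclei stained in one step (final 0.05% Triton X-100, 1% formaldehyde, 1 ug/ml Hoechst), then counted on 4× images. Relative viability is the nuclei count in treated wells divided by that in vehicle wells. Values are medians of duplicate plates.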

[2] = compound: C1CN(CCC1C(C2=CC3=C(C=C2)OCO3)(C4=CC5=C(C=C4)OCO5)O)C(=O)OC6=CC=C(C=C6)[N+](=O)[O-] [JZL-184] + NC(=O)Nc1cc(-c2cccc(F)c2)sc1C(=O)N[C@H]1CCCNC1 [AZD7762] (partner 0.2 µM)
How it was run: as §1

[3] = compound: C1CN(CCC1C(C2=CC3=C(C=C2)OCO3)(C4=CC5=C(C=C4)OCO5)O)C(=O)OC6=CC=C(C=C6)[N+](=O)[O-] [JZL-184] + CC(=O)Nc1cccc(-n2c(=O)n(C3CC3)c(=O)c3c(Nc4ccc(I)cc4F)n(C)c(=O)c(C)c32)c1 [Trametinib] (partner 0.02 µM)
How it was run: as §1

[4] = compound: C1CN(CCC1C(C2=CC3=C(C=C2)OCO3)(C4=CC5=C(C=C4)OCO5)O)C(=O)OC6=CC=C(C=C6)[N+](=O)[O-] [JZL-184] + CS(=O)(=O)N1CCN(Cc2cc3nc(-c4cccc5[nH]ncc45)nc(N4CCOCC4)c3s2)CC1 [Pictilisib] (partner 1 µM)
How it was run: as §1

[5] = compound: C1CN(CCC1C(C2=CC3=C(C=C2)OCO3)(C4=CC5=C(C=C4)OCO5)O)C(=O)OC6=CC=C(C=C6)[N+](=O)[O-] [JZL-184] + O=C(c1cc(Cc2n[nH]c(=O)c3ccccc23)ccc1F)N1CCN(C(=O)C2CC2)CC1 [Olaparib] (partner 8 µM)
How it was run: as §1

Row | Cell Line | relative viability ([1]; first compound 0.04 µM) | relative viability ([1]; first compound 0.4 µM) | relative viability ([1]; first compound 1.265 µM) | relative viability ([1]; first compound 4 µM) | relative viability ([2]; first compound 0.04 µM) | relative viability ([2]; first compound 0.4 µM) | relative viability ([2]; first compound 1.265 µM) | relative viability ([2]; first compound 4 µM) | relative viability ([3]; first compound 0.04 µM) | relative viability ([3]; first compound 0.4 µM) | relative viability ([3]; first compound 1.265 µM) | relative viability ([3]; first compound 4 µM) | relative viability ([4]; first compound 0.04 µM) | relative viability ([4]; first compound 0.4 µM) | relative viability ([4]; first compound 1.265 µM) | relative viability ([4]; first compound 4 µM) | relative viability ([5]; first compound 0.04 µM) | relative viability ([5]; first compound 0.4 µM) | relative viability ([5]; first compound 1.265 µM) | relative viability ([5]; first compound 4 µM)
1 | HCC-15 | 0.944 | 0.808 | 0.883 | 0.762 | 1 | 1.21 | 1.3 | 1.14 | 0.384 | 0.353 | 0.413 | 0.431 | 0.957 | 0.664 | 0.814 | 0.697 | 0.725 | 0.685 | 0.771 | 0.736
2 | NCI-H2126 | 1.04 | 1.02 | 1.06 | 1.02 | 1.06 | 1.01 | 1.02 | 0.996 | 0.506 | 0.603 | 0.602 | 0.503 | 0.498 | 0.499 | 0.514 | 0.5 | 0.892 | 0.891 | 0.975 | 0.925
3 | NCI-H2085 | 0.969 | 0.806 | 0.808 | 0.844 | – | 0.886 | 1.02 | 1.01 | – | 0.515 | 0.527 | 0.603 | 0.459 | 0.401 | 0.467 | 0.549 | – | 0.743 | 0.815 | 0.704
4 | BEN | 1 | 0.87 | 1.02 | 0.861 | 0.731 | 0.666 | 0.752 | 0.792 | 0.967 | 1.06 | 1.07 | 1.04 | 0.661 | 0.515 | 0.637 | 0.54 | 1.15 | 1.01 | 1.24 | 1.03
5 | NCI-H650 | 0.872 | 0.73 | 0.814 | 0.685 | 0.997 | 1.1 | 1.07 | 0.988 | 1.06 | 0.871 | 0.963 | 0.995 | 1.08 | 0.857 | 0.884 | 0.876 | 0.427 | 0.369 | 0.438 | 0.381
6 | LCLC-103H | 1.02 | 0.959 | 1.02 | 1 | 0.791 | 0.764 | 0.833 | 0.754 | 0.644 | 0.664 | 0.691 | 0.674 | 0.574 | 0.49 | 0.654 | 0.615 | 0.829 | 0.767 | 0.765 | 0.763
7 | PC-14 | 0.909 | 0.966 | 0.828 | 0.86 | 0.391 | 0.337 | 0.387 | 0.321 | 1.1 | 0.693 | 0.738 | 0.635 | 0.867 | 0.619 | 0.722 | 0.589 | 0.251 | 0.223 | 0.233 | 0.219
8 | NCI-H1915 | 0.924 | 0.821 | 0.902 | 0.84 | 0.76 | 0.58 | 0.726 | 0.697 | 0.301 | 0.293 | 0.328 | 0.297 | 1.05 | 0.914 | 1.1 | 0.918 | 0.262 | 0.264 | 0.273 | 0.233
